Drawing on patent publication US8906909B2 (Curis, Inc., priority 2009, dated 2014), this text covers melting point and IC50 for 24 compounds.

Each structure is given as a SMILES string.

By melting point is commonly meant the temperature of the solid-liquid transition. The IC50 is the concentration needed to halve the response being measured. Higher therefore signals lower potency.

The subject of series [1] is HDACs (HeLa cell nuclear extracts). As to the kind of experiment: HDAC enzymatic activity, Biomol Color de Lys system. The format is biochemical. The protocol: (e) An In Vitro Assay which Determines the Ability of a Test Compound to Inhibit HDAC Enzymatic Activity.
HDAC inhibitory activity was assessed using the Biomol Color de Lys system (AK-500, Biomol, Plymouth Meeting, Pa.). Briefly, HeLa cell nuclear extracts were used as a source of HDACs. Different concentrations of test compounds were serially diluted in dimethylsulphoxide (DMSO) and added to HeLa cell nuclear extracts in the presence of a colorimetric artificial substrate. Final assay condition contained 50 mM Tris/Cl, pH 8.0, 137 mM NaCl, 2.7 mM KCl and 1 mM MgCl2. Reactions were carried in room temperature (25° C.) for 1 hour before addition of developer for termination. Relative enzyme activity was measured in the WALLAC Victor II 1420 microplate reader as floorescence intensity (excitation: 350-380 nm; emission: 440-460 nm). Data were analyzed using GraphPad Prism (v4.0a) with a sigmoidal dose response curve fitting for IC50 calculation.

In the case of `CN(Cc1cc2nc(-c3ccc(O)cc3)nc(N3CCOCC3)c2s1)c1ncc(C(=O)NO)cn1` [Compound 133, N-hydroxy-2-(((2-(4-hydroxyphenyl)-4-morpholinothieno[3,2-d]pyrimidin-6-yl)methyl)(methyl)amino)pyrimidine-5-carboxamide], the melting point was 185 to 195 °C. In series [1], this compound showed an IC50 below 0.1 µM.
The matching figures for `CN(Cc1cc2nc(-c3cccc4[nH]ncc34)nc(N3CCOCC3)c2s1)c1ccc(/C=C/C(=O)NO)cc1` [Compound 81, (E)-3-(4-(((2-(1H-indazol-4-yl)-4-morpholinothieno[3,2-d]pyrimidin-6-yl)methyl)(methyl)amino)phenyl)-N-hydroxyacrylamide]: 188 to 190 °C and 1 to 10 µM.
Regarding `CN(Cc1cc2nc(-c3cccc4[nH]ncc34)nc(Nc3ccccc3)c2s1)c1ncc(C(=O)NO)cn1` [Compound 164, 2-(((2-(1H-indazol-4-yl)-4-(phenylamino)thieno[3,2-d]pyrimidin-6-yl)methyl)(methyl)amino)-N-hydroxypyrimidine-5-carboxamide], the melting point is 232 to 235 °C. Moreover, in series [1], the IC50 is below 0.1 µM.
The like results for `CN(Cc1cc2nc(-c3ccc(C#N)cc3)nc(N3CCOCC3)c2s1)c1ncc(C(=O)NO)cn1` [Compound 146, 2-(((2-(4-cyanophenyl)-4-morpholinothieno[3,2-d]pyrimidin-6-yl)methyl)(methyl)amino)-N-hydroxypyrimidine-5-carboxamide] were, in that order, 214 to 216 °C and below 0.1 µM.
The matching figures for `CN(CCCCCC(=O)NO)Cc1cc2nc(-c3cccc4[nH]ncc34)nc(N3CCOCC3)c2s1` [Compound 103, 6-(((2-(1H-indazol-4-yl)-4-morpholinothieno[3,2-d]pyrimidin-6-yl)methyl)(methyl)amino)-N-hydroxyhexanamide]: 115 to 118 °C and below 0.1 µM.
`CN(Cc1cc2nc(-c3cccc4[nH]ncc34)nc(Nc3ccccn3)c2s1)c1ncc(C(=O)NO)cn1` [Compound 168, 2-(((2-(1H-indazol-4-yl)-4-(pyridin-2-ylamino)thieno[3,2-d]pyrimidin-6-yl)methyl)(methyl)amino)-N-hydroxypyrimidine-5-carboxamide] came in with a melting point of 200 to 203 °C. The compound further came in with an IC50 in series [1] below 0.1 µM.
The matching figures for `CC(C)(C)CN(Cc1cc2nc(-c3cccc4[nH]ncc34)nc(N3CCOCC3)c2s1)c1ncc(C(=O)NO)cn1` [Compound 83, 2-(((2-(1H-indazol-4-yl)-4-morpholinothieno[3,2-d]pyrimidin-6-yl)methyl)(neopentyl)amino)-N-hydroxypyrimidine-5-carboxamide]: 240 to 242 °C and 1 to 10 µM.
The compound `Nc1ncc(-c2nc(N3CCOCC3)c3sc(NCCCCCCC(=O)NO)cc3n2)cn1` [Compound 234, 7-[2-(2-Amino-pyrimidin-5-yl)-4-morpholin-4-yl-thieno[3,2-d]pyrimidin-6-ylamino]-heptanoic acid hydroxyamide] returned a melting point of 235 to 240 °C. In series [1], this compound gave an IC50 below 0.1 µM.
With `CS(=O)(=O)N1CCN(Cc2cc3nc(-c4cccc5[nH]ncc45)nc(N4CCN(CCCCC(=O)NO)CC4)c3s2)CC1` [Compound 30, 5-(4-(2-(1H-indazol-4-yl)-6-((4-(methylsulfonyl)piperazin-1-yl)methyl)thieno[3,2-d]pyrimidin-4-yl)piperazin-1-yl)-N-hydroxypentanamide], the melting point lay in the range of 142 to 145 °C. The IC50 in series [1] lay within 0.1 to 1 µM.
The like results for `CN(Cc1cc2nc(-c3ccc4c(c3)CC(=O)N4)nc(N3CCOCC3)c2s1)c1ncc(C(=O)NO)cn1` [Compound 194, N-hydroxy-2-(methyl((4-morpholino-2-(2-oxoindolin-5-yl)thieno[3,2-d]pyrimidin-6-yl)methyl)amino)pyrimidine-5-carboxamide] were, in that order, 270 °C (dec.) and below 0.1 µM.
The like results for `CC(C)c1ccc(-c2nc(N3CCOCC3)c3sc(CN(C)c4ncc(C(=O)NO)cn4)cc3n2)cc1` [Compound 148, N-hydroxy-2-(((2-(4-isopropylphenyl)-4-morpholinothieno[3,2-d]pyrimidin-6-yl)methyl)(methyl)amino)pyrimidine-5-carboxamide] were, in that order, 155 °C (dec.) and below 0.1 µM.
The matching figures for `CN(C)CCOc1ccc(-c2nc(N3CCOCC3)c3sc(CN(C)c4ncc(C(=O)NO)cn4)cc3n2)cn1` [Compound 257, 2-(((2-(6-(2-(Dimethylamino)ethoxy)pyridin-3-yl)-4-morpholinothieno[3,2-d]pyrimidin-6-yl)methyl)(methyl)amino)-N-hydroxypyrimidine-5-carboxamide]: 140 to 143 °C and below 0.1 µM.
Take `CC(C)CN(Cc1cc2nc(-c3cccc4[nH]ncc34)nc(N3CCOCC3)c2s1)c1ncc(C(=O)NO)cn1` [Compound 93, 2-(((2-(1H-indazol-4-yl)-4-morpholinothieno[3,2-d]pyrimidin-6-yl)methyl)(isobutyl)amino)-N-hydroxypyrimidine-5-carboxamide]: the melting point is 196 to 198 °C. In series [1], this compound had an IC50 of 0.1 to 1 µM.
The matching figures for `CN(Cc1cc2nc(-c3cccc(SCCO)c3)nc(N3CCOCC3)c2s1)c1ncc(C(=O)NO)cn1` [Compound 290, N-Hydroxy-2-(((2-(3-(2-hydroxyethylthio)phenyl)-4-morpholinothieno[3,2-d]pyrimidin-6-yl)methyl)(methyl)amino)pyrimidine-5-carboxamide]: 188 to 192 °C and below 0.1 µM.
In the case of `CC(O)c1ccc(F)c(-c2nc(N3CCOCC3)c3sc(CN(C)c4ncc(C(=O)NO)cn4)cc3n2)c1` (centres unmarked) [Compound 295, 2-(((2-(2-Fluoro-5-(1-hydroxyethyl)phenyl)-4-morpholinothieno[3,2-d]pyrimidin-6-yl)methyl)(methyl)amino)-N-hydroxypyrimidine-5-carboxamide], the melting point was 230 to 235 °C. In addition, in series [1], the IC50 was below 0.1 µM.
The matching figures for `CS(=O)(=O)N1CCN(Cc2cc3nc(-c4cccc5[nH]ncc45)nc(N4CCN(CCCCCCC(=O)NO)CC4)c3s2)CC1` [Compound 32, 7-(4-(2-(1H-indazol-4-yl)-6-((4-(methylsulfonyl)piperazin-1-yl)methyl)thieno[3,2-d]pyrimidin-4-yl)piperazin-1-yl)-N-hydroxyheptanamide]: 131 to 134 °C and 0.1 to 1 µM.
The matching figures for `CN(Cc1cc2nc(-c3ccc(OCCN)nc3)nc(N3CCOCC3)c2s1)c1ncc(C(=O)NO)cn1` [Compound 259, 2-(((2-(6-(2-Aminoethoxy)pyridin-3-yl)-4-morpholinothieno[3,2-d]pyrimidin-6-yl)methyl)(methyl)amino)-N-hydroxypyrimidine-5-carboxamide]: 110 to 115 °C and below 0.1 µM.
The matching figures for `CN(Cc1cc2nc(-c3cn[nH]c3)nc(N3CCOCC3)c2s1)c1ncc(C(=O)NO)cn1` [Compound 196, N-hydroxy-2-(methyl((4-morpholino-2-(1H-pyrazol-4-yl)thieno[3,2-d]pyrimidin-6-yl)methyl)amino)pyrimidine-5-carboxamide]: 214 to 217 °C and below 0.1 µM.
In turn, `CN(Cc1cc2nc(-c3ccc4[nH]c(=O)[nH]c4c3)nc(N3CCOCC3)c2s1)c1ncc(C(=O)NO)cn1` [Compound 186, N-hydroxy-2-(methyl((4-morpholino-2-(2-oxo-2,3-dihydro-1H-benzo[d]imidazol-5-yl)thieno[3,2-d]pyrimidin-6-yl)methyl)amino)pyrimidine-5-carboxamide] returned a melting point of 272 to 275 °C. This compound displayed an IC50 in series [1] below 0.1 µM.
Turning to `COc1ccc(-c2nc(N3CCOCC3)c3sc(C(C)(C)N(C)c4ncc(C(=O)NO)cn4)cc3n2)cn1` [Compound 251, N-Hydroxy-2-((2-(2-(6-methoxypyridin-3-yl)-4-morpholinothieno[3,2-d]pyrimidin-6-yl)propan-2-yl)(methyl)amino)pyrimidine-5-carboxamide], the melting point is 175 to 178 °C. Further, the IC50 in series [1] is below 0.1 µM.
The matching figures for `CN(Cc1cc2nc(-c3cc[nH]c3)nc(N3CCOCC3)c2s1)c1ncc(C(=O)NO)cn1` [Compound 197, N-hydroxy-2-(methyl((4-morpholino-2-(1H-pyrrol-3-yl)thieno[3,2-d]pyrimidin-6-yl)methyl)amino)pyrimidine-5-carboxamide]: 175 to 189 °C and below 0.1 µM.
With `O=C(CCCNCc1cc2nc(-c3cccc4[nH]ncc34)nc(N3CCOCC3)c2s1)NO` [Compound 41, 4-((2-(1H-indazol-4-yl)-4-morpholinothieno[3,2-d]pyrimidin-6-yl)methylamino)-N-hydroxybutanamide], the melting point was in the range of 149 to 152 °C. In series [1], this compound had an IC50 below 0.1 µM.
For `Nc1ncc(-c2nc(N3CCOCC3)c3sc(NS(=O)(=O)c4cccc(/C=C/C(=O)NO)c4)cc3n2)cn1` [Compound 218, (E)-3-(3-(N-(2-(2-aminopyrimidin-5-yl)-4-morpholinothieno[3,2-d]pyrimidin-6-yl)sulfamoyl)phenyl)-N-hydroxyacrylamide], the melting point was above 300 °C. Besides, the IC50 in series [1] is below 0.1 µM.
As to `COc1ccc(-c2nc(N3CCOCC3)c3sc(CN(C)c4ncc(C(=O)NO)cn4)cc3n2)cc1` [Compound 131, N-hydroxy-2-(((2-(4-methoxyphenyl)-4-morpholinothieno[3,2-d]pyrimidin-6-yl)methyl)(methyl)amino)pyrimidine-5-carboxamide], the melting point was 247 °C (dec.).
